According to patent US20230312561A1, “SOLID FORMS OF (Z)-METHYL 3-(((4-(N-METHYL-2-(4-METHYLPIPERAZIN-1-YL)ACETAMIDO)PHENYL)AMINO)(PHENYL)METHYLENE)-2-OXO-2,3-DIHYDRO-1H-PYRROLO[2,3-B]PYRIDINE-6-CARBOXYLATE AND SALTS THEREOF” (Angion Biomedica Corp., priority 2020, published 2023):

Assays:
[1] = Dynamic Vapor Sorption (DVS) analysis with XRPD after equilibration; assay type: physicochemical; details: for moisture/water content on initial equilibration at 50% RH (DVS): beginning of analysis; for reversibility of water uptake (DVS): as relative humidity decreased
Experimental: Sorption isotherms were obtained using a Hiden Isochema moisture sorption analyzer (model IGAsorp), controlled by IGAsorp Systems Software V6.50.48. The sample was maintained at a constant temperature (25° C.) by the instrument controls. The humidity was controlled by mixing streams of dry and wet nitrogen, with a total flow of 250 mL·min^−1. The instrument was verified for relative humidity content by measuring three calibrated Rotronic salt solutions (10%, 50%, 88%). The weight change of the sample was monitored as a function of humidity by a microbalance (accuracy+/−0.005 mg). A defined amount of sample was placed in a tared mesh stainless steel basket under ambient conditions. A full experimental cycle typically consisted of three scans (sorption, desorption and sorption) at a constant temperature (25° C.) and 10% RH intervals over a 0-90% range (60 minutes for each humidity level). […]
This water content decreased as relative humidity decreased in the first desorption cycle.
The solid absorbed 3.39% water over the humidity range. […] The profile was similar to that of Form C in Example 7.2.

[2] = Drying studies of Compound 1 Hydrochloride (XRPD, TGA); assay type: physicochemical
Experimental: Compound 1 Hydrochloride Form A was then subjected to drying under various conditions.
Drying studies of Compound 1 Hydrochloride Form A (Type 1 Lot) were performed.
Variability in the drying profiles of different lots of Compound 1 Hydrochloride were noted, particularly with regards to the transition between Form A and Form C. The variable behavior appeared to depend upon the nature of the input Form A batch (e.g., how it was generated and then conditioned, if at all, prior to drying, and/or if excess hydrochloric acid was present).
Concentrated HCl (154 μL, 1 eqiuv) was added which clarified the suspension to a deep orange solution. The mixture was equilibrated for 30 minutes before cooling gradually to room temperature. A thin yellow suspension resulted. The solvent volume was reduced by 50% which thickened the suspension. The suspension was matured overnight, following which the solid was filtered to isolate the solids. The solid was air dried for ˜30 minutes giving a yellow solid (damp mass: 1.24 g; pH measured at 5.0). The XRPD pattern of the damp solid corresponded with Compound 1 Hydrochloride Form H. Analysis of the damp solid by DSC and TGA indicated a water content of 8.2%, which was fairly labile up ˜75° C.
Compound 1 Hydrochloride Form H was then subjected to a drying study under various conditions.
The solids were further subjected to prolonged drying.

[3] = Solid state stability under humid conditions (40° C./75% RH and 25° C./60% RH, two weeks); assay type: physicochemical
Experimental: Stability of Compound 1 Hydrochloride Forms A, B, C, and D was evaluated under humid conditions. Samples of Forms A, B, C, and D were stored at 40° C./75% RH and 25° C./60% RH for a period of two weeks (loosely capped glass vials with approx. 200 mg solid). Solids were then re-analyzed using methods described herein. A summary of the results is provided in Table 12 (after storage at 25° C./60% RH) and Table 13 (after storage at 40° C./75% RH).

[4] = Form stability on standing on bench or at 40° C./75% RH (XRPD); assay type: physicochemical
Experimental: Two samples of the solid were stored under glass with loose fitting lids on a bench and at 40° C./75% RH for a period of 5 days and re-analyzed by XRPD.
In an additional experiment, a sample of Form F was left to stand on a bench in a loosened vial for 48 hours.

[5] = Aqueous solubility of salt forms (25° C., 1, 4, 24 h); details: deionized water; for XRPD: isolated solids
Experimental: Aqueous solubility of certain salt forms was assessed. Each solid (100 mg) was charged into a crystallization tube. Deionized water (1 mL) was added to each tube to give a suspension. The mixtures were equilibrated at 25° C. for 24 hours with sampling after 1 and 4 hours' equilibration. Solids were isolated and XRPD analysis obtained.

[6] = Dry in vacuo at 25° C., T = 4 h
[7] = Dry in vacuo at 25° C., T = 24 h
[8] = Dry in vacuo at 25° C., T = 48 h
[9] = Dry in vacuo at 25° C., T = 120 h
[10] = Dry in vacuo at 45° C., T = 4 h
[11] = Dry in vacuo at 45° C., T = 24 h
[12] = Dry in vacuo at 45° C., T = 120 h
[13] = Dry in vacuo at 70° C., T = 4 h
[14] = Dry in vacuo at 70° C., T = 24 h
[15] = Dry in vacuo at 70° C., T = 120 h
[16] = Form C prepared from Form A, Type 1 Lot
[17] = Form C prepared from Form A, Type 2 Lot
[18] = under glass with loose fitting lid, 5 days
[19] = Dry in vacuo at 25° C., T = 96 h
[20] = Dry in vacuo at 45° C., T = 96 h
[21] = Dry in vacuo at 70° C., T = 96 h

## COC(=O)c1ccc2c(c1)NC(=O)/C2=C(\Nc1ccc(N(C)C(=O)CN2CCN(C)CC2)cc1)c1ccccc1.Cl [Compound 1 Hydrochloride Form A (Type 2 Lot)]
[1]; 0% RH
  XRPD analysis following equilibration at 0% RH: mixture of Form A and Form C
[1]
  moisture/water content on initial equilibration at 50% RH (DVS): 6.39%
[1]; 90% RH
  XRPD analysis following equilibration at 90% RH: predominantly Form A
[1]; first desorption cycle
  uptake of water following initial equilibration at 50% RH during first desorption cycle (DVS): −7%
[1]; first sorption cycle
  water absorbed over the humidity range, first sorption cycle (DVS): 8.66%
[2]; [6]
  TGA (%): 9.96%
[2]; [7]
  TGA (%): 7.09%
  XRPD: Form A
[2]; [8]
  TGA (%): 6.61%
  XRPD: Form A
[2]; [9]
  TGA (%): 3.45%
[2]; [10]
  TGA (%): 9.89%
[2]; [11]
  TGA (%): 6.93%
[2]; Dry in vacuo at 45° C., T = 48 h
  TGA (%): 6.63%
[2]; [12]
  TGA (%): 2.27%
[2]; [13]
  TGA (%): 8.93%
[2]; [14]
  TGA (%): 6.49%
[2]; Dry in vacuo at 70° C., T = 48 h
  TGA (%): 6.68%
[2]; [15]
  TGA (%): 2.17%
[2]; T = 0, before drying
  TGA (%): 14.83%
[2]; summary of drying studies, Table 10
  level of hydration after extended drying: reduced to 2-3%
[3]; 25° C./60% RH
  XRPD After Storage: Form A/C
[3]; 40° C./75% RH
  XRPD After Storage: amorphous

## COC(=O)c1ccc2c(c1)NC(=O)/C2=C(\Nc1ccc(N(C)C(=O)CN2CCN(C)CC2)cc1)c1ccccc1.Cl [Compound 1 Hydrochloride Form B]
[1]; 0% RH
  XRPD analysis following equilibration at 0% RH: Form F
[1]
  moisture/water content on initial equilibration at 50% RH (DVS): 4.2%
  reversibility of water uptake (DVS): reversible
[1]; 90% RH
  XRPD analysis following equilibration at 90% RH: Form H
[1]; above 70% RH
  level of water reached in initial sorption step after 70% RH (DVS): 17.3%
[1]; initial desorption step
  loss of water on the initial desorption step (DVS): ~1.5%
[1]; second desorption step
  water content after the second desorption step (DVS): 1.1%
[3]; 25° C./60% RH
  TGA After Storage: further loss above/post 200° C.: 1.41% post 200 °C
  TGA After Storage: weight reduction to 60° C.: Weight reduction of 1.69% to 60 °C
  XRPD After Storage: Form B
[3]; 40° C./75% RH
  TGA After Storage: further loss above/post 200° C.: followed by further loss of 1.4%
  TGA After Storage: weight reduction to 60° C.: Weight reduction of 1.0% to 60 °C
  XRPD After Storage: Form H

## COC(=O)c1ccc2c(c1)NC(=O)/C2=C(\Nc1ccc(N(C)C(=O)CN2CCN(C)CC2)cc1)c1ccccc1.Cl [Compound 1 Hydrochloride Form C]
[1]; 0% RH
  XRPD analysis following equilibration at 0% RH: remained Form C
[1]; 90% RH
  XRPD analysis following equilibration at 90% RH: Form A
[1]; [16]
  water absorbed above 70% RH (DVS): 8.38%
  water absorbed up to 70% RH, initial sorption step (DVS): 1.44%
  water content reached over the humidity range on second sorption cycle (DVS): 10%
[1]; [17]
  XRPD analysis following equilibration at 0% RH: remained Form C
  XRPD analysis following equilibration at 90% RH: remained Form C
  water absorbed over the humidity range (DVS): 3.39%
  water absorbed up to 80% RH (DVS): 1.55%
[1]
  reversibility of water uptake (DVS): reversible
[2]; equilibrated in water for 48 hours
  form after equilibration in water (damp solid, XRPD): readily converted to Form A
[3]; 25° C./60% RH
  TGA After Storage: further loss above/post 200° C.: 0.98% post 200 °C
  XRPD After Storage: Form C
[3]; 40° C./75% RH
  TGA After Storage: further loss above/post 200° C.: 1.0% post 200 °C
  XRPD After Storage: Form C
[4]; [18]
  XRPD after storage at 40° C./75% RH: no change from Form C
  XRPD after storage on a bench: no change from Form C

## COC(=O)c1ccc2c(c1)NC(=O)/C2=C(\Nc1ccc(N(C)C(=O)CN2CCN(C)CC2)cc1)c1ccccc1.Cl [Compound 1 Hydrochloride Form D]
[3]; 25° C./60% RH
  TGA After Storage: further loss above/post 200° C.: 1.51% post 200 °C
  XRPD After Storage: Form D
[3]; 40° C./75% RH
  TGA After Storage: further loss above/post 200° C.: 1.68% post 200 °C
  XRPD After Storage: Form D

## COC(=O)c1ccc2c(c1)NC(=O)C2=C(Nc1ccc(N(C)C(=O)CN2CCN(C)CC2)cc1)c1ccccc1.Cl [Compound 1 Hydrochloride Form F]
[2]; all drying temperatures (25, 45, 70° C.)
  behaviour on prolonged drying: robust toward further changes
[4]; 48 hours
  form after standing on a bench in a loosened vial (XRPD and TGA): fully converted into Form H

## COC(=O)c1ccc2c(c1)NC(=O)/C2=C(\Nc1ccc(N(C)C(=O)CN2CCN(C)CC2)cc1)c1ccccc1.Cl [Compound 1 Hydrochloride Form H]
[2]; [6]
  TGA (%): 0%
  XRPD: Form F
[2]; [7]
  XRPD: Form F
[2]; [19]
  TGA (%): 0%
  XRPD: Form F
[2]; [9]
  XRPD: Form F
[2]; [10]
  TGA (%): 0%
  XRPD: Form F
[2]; [11]
  XRPD: Form F
[2]; [20]
  TGA (%): 0%
  XRPD: Form F
[2]; [12]
  XRPD: Form F
[2]; [13]
  TGA (%): 0%
  XRPD: Form F
[2]; [14]
  XRPD: Form F
[2]; [21]
  TGA (%): 0%
  XRPD: Form F
[2]; [15]
  XRPD: Form F
[2]; T = 0, before drying
  TGA (%): 8.24%
  XRPD: Form H

## COC(=O)c1ccc2c(c1)NC(=O)/C2=C(\Nc1ccc(N(C)C(=O)CN2CCN(C)CC2)cc1)c1ccccc1.Cl [HCl (Form A, Type 1 Lot)]
[5]; t = 1 h
  Solubility: 70.37 mg/mL
  pH: 3.34
[5]; t = 4 h
  Solubility: 50.54 mg/mL
[5]; t = 24 h
  Solubility: 52.88 mg/mL
  pH: 3.28

## COC(=O)c1ccc2c(c1)NC(=O)/C2=C(\Nc1ccc(N(C)C(=O)CN2CCN(C)CC2)cc1)c1ccccc1.Cl [HCl (Form A, Type 2 Lot)]
[5]; t = 1 h
  Solubility: 46.11 mg/mL
  pH: 5.22
  XRPD: Form A
[5]; t = 4 h
  Solubility: 43.78 mg/mL
  XRPD: Form A
[5]; t = 24 h
  Solubility: 40.58 mg/mL
  pH: 5.25
  XRPD: Form A

## Maleate
[5]; t = 1 h
  Solubility: 12.50 mg/mL
  pH: 6.35
[5]; t = 4 h
  Solubility: 12.39 mg/mL
[5]; t = 24 h
  Solubility: 9.45 mg/mL
  pH: 6.40

## Tosylate
[5]; t = 1 h
  Solubility: 2.07 mg/mL
  pH: 6.46
[5]; t = 4 h
  Solubility: 2.02 mg/mL
[5]; t = 24 h
  Solubility: 2.39 mg/mL
  pH: 6.66
